From paper PMC11451537, “P2X7 receptors exhibit at least three modes of allosteric antagonism” (Science Advances, 2024)
Substitutions are numbered along the chain they refer to.

What was measured:
Assay type in all cases: cell-based
[1] = target: T1, rP2X7-K297V (Rattus norvegicus, UniProt Q64663, K297V); test: TEVC inhibition dose-response, rP2X7-K297V mutant; details: signals evoked by 300 μM ATP, read-out: IC50 (inhibitory potency), K297V
T1 sequence (Q64663 1-595 K297V): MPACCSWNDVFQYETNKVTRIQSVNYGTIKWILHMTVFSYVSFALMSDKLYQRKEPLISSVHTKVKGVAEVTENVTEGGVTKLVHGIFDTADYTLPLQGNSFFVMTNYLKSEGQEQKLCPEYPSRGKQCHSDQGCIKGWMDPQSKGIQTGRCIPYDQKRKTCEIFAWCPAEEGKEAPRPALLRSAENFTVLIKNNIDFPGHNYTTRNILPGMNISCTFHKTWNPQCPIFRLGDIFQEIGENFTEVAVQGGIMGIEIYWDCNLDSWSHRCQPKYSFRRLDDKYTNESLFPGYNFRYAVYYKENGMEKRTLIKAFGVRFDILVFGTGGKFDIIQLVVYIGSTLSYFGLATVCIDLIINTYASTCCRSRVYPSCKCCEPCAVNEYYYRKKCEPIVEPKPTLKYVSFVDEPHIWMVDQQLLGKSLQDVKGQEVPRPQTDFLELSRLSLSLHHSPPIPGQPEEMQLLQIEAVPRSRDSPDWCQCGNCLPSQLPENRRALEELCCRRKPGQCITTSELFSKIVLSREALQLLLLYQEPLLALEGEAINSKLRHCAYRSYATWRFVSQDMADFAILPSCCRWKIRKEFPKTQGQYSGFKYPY
Excerpt: (§1) Structural determination of the full-length, wild-type rP2X7 was completed using a construct previously described containing no truncations or mutations ([16]). Furthermore, the rP2X7-WT construct used for electrophysiology experiments is unmodified full-length, wild-type rP2X7 with no green fluorescent protein (GFP), protease sites, or affinity tags present. The hP2X1-WT, hP2X2-WT, hP2X3-WT, hP2X4-WT, and hP2X7-WT constructs used for electrophysiology are similarly unmodified full-length, wild-type receptor constructs with no GFP, protease sites, or affinity tags present. Mutations to the rP2X7-WT construct used for electrophysiology experiments were made directly in the pcDNA3.1x plasmid. These constructs included the following: rP2X7-K297A, rP2X7-K297G, rP2X7-K297M, rP2X7-K297Q, rP2X7-K297V, rP2X7-Y298A, rP2X7-Y298G, rP2X7-Y298V, rP2X7-Y298L, rP2X7-R316A, rP2X7-R316G, rP2X7-R316Q, rP2X7-R316H, rP2X7-F88A, rP2X7-F103A, and rP2X7-Y295A.
(§2) To evaluate the inhibitory response of an antagonist for a dilution series, an initial excitatory signal was evoked at a subtype-specific concentration of ATP. Next, the antagonist was applied at a test concentration for 60 s and then coapplied at the same test concentration of the antagonist with the identical subtype-specific concentration of ATP. The antagonized signal was then normalized against the preceding excitatory signal evoked by ATP for each individual oocyte tested. The pre- and post-antagonist signals were evoked by 10 μM ATP for hP2X1, 10 μM ATP for hP2X2, 1 μM ATP for hP2X3, 50 μM ATP for hP2X4, and 100 μM ATP for P2X7. For the K297V mutation in rP2X7, pre- and post-antagonist signals were evoked by 300 μM ATP. Each dataset was then fit to a nonlinear regression named “[inhibitor] vs. response – Variable slope (four parameters)” in GraphPad Prism 9 to produce a sigmoidal curve and afford an IC50 value. Each singular condition was used to generate an average which is reported plus or minus its SD between three discrete trials.

[2] = target: T2, rP2X7-F103A (Rattus norvegicus, UniProt Q64663, F103A); test: TEVC inhibition dose-response, rP2X7-F103A mutant; details: for IC50: reduced expression and variable response to ATP, read-out: IC50 (inhibitory potency), F103A
T2 sequence (Q64663 1-595 F103A): T1 sequence (Q64663 1-595 K297V) with F103A, V297K
Excerpt: as §1, §2

[3] = target: T3, rP2X7-F88A (Rattus norvegicus, UniProt Q64663, F88A); test: TEVC inhibition dose-response, rP2X7-F88A mutant; details: read-out: IC50 (inhibitory potency), F88A
T3 sequence (Q64663 1-595 F88A): T1 sequence (Q64663 1-595 K297V) with F88A, V297K
Excerpt: as §1, §2

| Compound | IC50 [1] [nM] | IC50 [2] [nM] | IC50 [3] [nM] | inhibition at 625 nM, F103A ([2]; 625 nM antagonist) | inhibition at 30 µM ([2]; 30 µM antagonist) [%] |
| --- | --- | --- | --- | --- | --- |
| Clc1cccc(-c2nnnn2Cc2cccnc2)c1Cl [A438079] | 110 ± 90 | > 10000 | 14000 ± 1000 | – | – |
| Clc1cccc(-n2nnnc2NCc2ccccc2Oc2ccccn2)c1Cl [A839977] | 3.2 ± 0.6 | > 1000 | 1900 ± 200 | – | – |
| O=C(NCC12CC3CC(CC(C3)C1)C2)c1cc(CCCNCCCO)ccc1Cl [AZD9056] | 12 ± 1 | > 10000 | 130 ± 10 | – | – |
| CN1C(=O)CC[C@H]1C(=O)NCc1cccc(C(F)(F)F)c1Cl [GSK1482160] | 1300 ± 400 | > 20000 | 13000 ± 3000 | – | – |
| O=C(NCC1(N2CCN(c3ccccc3)CC2)CCOCC1)c1cccnc1Sc1ccccc1 [JNJ47965567] | 21 ± 6 | – | 800 ± 100 | 50-80% | – |
| O=S(=O)(O)c1ccc(N=C2C=CC(=C(c3ccc(Nc4ccc(S(=O)(=O)O)cc4)cc3)c3ccc(Nc4ccc(S(=O)(=O)O)cc4)cc3)C=C2)cc1 [methyl blue] | 4000 ± 1000 | – | 5000 ± 2000 | – | 50 to 75 |
